Source: patent US9371295B2, “Compounds for use in the treatment of disorders that are ameliorated by inhibition of HDAC” (IRBM—Science Park S.p.A., priority 2012, dated 2016)

Key:
HDAC1 = biological target: T1, HDAC1 (Homo sapiens, UniProt Q13547); assay: HDAC1 assay (Fluor-de-Lys fluorescent deacetylase assay); assay type: biochemical; conditions: read-out: hHDAC IC50
T1 construct: made in house
Procedure, shortened: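 Serially diluted compounds were pre-incubated with purified FLAG-tagged HDAC1 (1-2 nM final; from transfected HeLa cells) or HeLa nuclear extract, then given the Fluor-de-Lys acetyl-lysine substrate/developer; deacetylation read as fluorescence. Reactions were stopped with TSA (3 uM final).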

HDAC in Hela cells = assay: HDAC Hela Cell Based assay
[1] = tested on: human γ-globin promoter (EGFP reporter) in K562 cells; assay: HbF activation assay on K562 (EGFP/RFP reporter model system for screening of inducers of fetal hemoglobin); assay type: cell-based; conditions: 60 hours
Procedure, shortened: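 K562 cells stably carrying EGFP under the human γ-globin promoter and far-red FP under the β-globin promoter, with the LCR, were seeded at 1000 cells/well. Cells were exposed to compounds (0.25% DMSO final) for 60 h at 37 °C. Fluorescence was read by plate cytometry, normalized to Hoechst nuclei count, which also indicated proliferation or death.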

T1 sequence (Q13547 whole entry): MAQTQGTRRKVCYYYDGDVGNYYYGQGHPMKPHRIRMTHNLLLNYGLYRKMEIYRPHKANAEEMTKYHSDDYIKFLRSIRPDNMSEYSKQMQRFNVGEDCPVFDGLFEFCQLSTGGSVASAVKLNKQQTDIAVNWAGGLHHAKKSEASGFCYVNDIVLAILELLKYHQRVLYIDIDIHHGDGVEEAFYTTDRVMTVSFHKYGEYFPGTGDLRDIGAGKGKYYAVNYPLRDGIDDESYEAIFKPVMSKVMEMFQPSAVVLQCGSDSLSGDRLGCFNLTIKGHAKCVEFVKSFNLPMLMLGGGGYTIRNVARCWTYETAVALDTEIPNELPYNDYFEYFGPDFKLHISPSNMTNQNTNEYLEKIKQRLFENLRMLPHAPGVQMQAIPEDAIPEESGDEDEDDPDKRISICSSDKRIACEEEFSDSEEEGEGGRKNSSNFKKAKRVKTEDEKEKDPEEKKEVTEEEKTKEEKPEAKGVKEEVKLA

CCC(=O)CCCCC[C@H](NC(=O)Cn1cc2ccccc2n1)c1ncc(-c2cc3ccccc3nc2OC)o1 [Compound 88, (S)-2-(2H-indazol-2-yl)-N-(1-(5-(2-methoxyquinolin-3-yl)oxazol-2-yl)-7-oxononyl)acetamide]
IC50 (HDAC1): < 100 nM | IC50 (HDAC in Hela cells): 100 to 1000 nM | EC50 [1]: > 1000 nM

CCC(=O)CCCCC[C@H](NC(=O)Cc1cc2ncccn2n1)c1ncc(-c2cc3ccccc3nc2OC)o1 [Compound 89, (S)-N-(1-(5-(2-methoxyquinolin-3-yl)oxazol-2-yl)-7-oxononyl)-2-(pyrazolo[1,5-a]pyrimidin-2-yl)acetamide]
IC50 (HDAC1): < 100 nM | IC50 (HDAC in Hela cells): 100 to 1000 nM | EC50 [1]: > 1000 nM

CCC(=O)CCCCC[C@H](NC(=O)c1nnc(C)o1)c1ncc(-c2cc3ccccc3nc2OC)o1 [Compound 90, (S)-N-(1-(5-(2-methoxyquinolin-3-yl)oxazol-2-yl)-7-oxononyl)-5-methyl-1,3,4-oxadiazole-2-carboxamide]
IC50 (HDAC1): < 100 nM | IC50 (HDAC in Hela cells): 100 to 1000 nM | EC50 [1]: > 1000 nM

CCC(=O)CCCCC[C@H](NC(=O)c1cccnc1)c1ncc(-c2cc3ccccc3nc2OC)o1 [Compound 91, (S)-N-(1-(5-(2-methoxyquinolin-3-yl)oxazol-2-yl)-7-oxononyl)nicotinamide]
IC50 (HDAC1): < 100 nM | IC50 (HDAC in Hela cells): 100 to 1000 nM | EC50 [1]: 100 to 1000 nM

CCC(=O)CCCCC[C@H](NC(=O)CCc1cnn(C)c1)c1ncc(-c2cc3ccccc3nc2OC)o1 [Compound 93, (S)-N-(1-(5-(2-methoxyquinolin-3-yl)oxazol-2-yl)-7-oxononyl)-3-(1-methyl-1H-pyrazol-4-yl)propanamide]
IC50 (HDAC1): < 100 nM | IC50 (HDAC in Hela cells): 100 to 1000 nM | EC50 [1]: 100 to 1000 nM

CCC(=O)CCCCC[C@H](NC(=O)c1cc(CN2CCCCC2)ns1)c1ncc(-c2cc3ccccc3nc2OC)o1 [Compound 94, (S)-N-(1-(5-(2-methoxyquinolin-3-yl)oxazol-2-yl)-7-oxononyl)-3-(piperidin-1-ylmethyl)isothiazole-5-carboxamide]
IC50 (HDAC1): < 100 nM | IC50 (HDAC in Hela cells): 100 to 1000 nM | EC50 [1]: > 1000 nM

CCC(=O)CCCCC[C@H](NC(=O)C(C)n1nc(C)cc1C)c1ncc(-c2cc3ccccc3nc2OC)o1 (stereo partly drawn) [Compound 95, 2-(3,5-dimethyl-1H-pyrazol-1-yl)-N-((S)-1-(5-(2-methoxyquinolin-3-yl)oxazol-2-yl)-7-oxononyl)propanamide]
IC50 (HDAC1): < 100 nM | IC50 (HDAC in Hela cells): 100 to 1000 nM | EC50 [1]: > 1000 nM

CCC(=O)CCCCC[C@H](NC(=O)c1cc(C)nn1C)c1ncc(-c2cc3ccccc3nc2OC)o1 [Compound 96, (S)-N-(1-(5-(2-methoxyquinolin-3-yl)oxazol-2-yl)-7-oxononyl)-1,3-dimethyl-1H-pyrazole-5-carboxamide]
IC50 (HDAC1): < 100 nM | IC50 (HDAC in Hela cells): 100 to 1000 nM | EC50 [1]: > 1000 nM

CCC(=O)CCCCC[C@H](NC(=O)Cn1cnc2ccccc21)c1ncc(-c2cc3ccccc3nc2OC)o1 [Compound 97, (S)-2-(1H-benzo[d]imidazol-1-yl)-N-(1-(5-(2-methoxyquinolin-3-yl)oxazol-2-yl)-7-oxononyl)acetamide]
IC50 (HDAC1): < 100 nM | IC50 (HDAC in Hela cells): 100 to 1000 nM | EC50 [1]: > 1000 nM

CCC(=O)CCCCC[C@H](NC(=O)c1ccn(C)n1)c1ncc(-c2cc3ccccc3nc2OC)o1 [Compound 98, (S)-N-(1-(5-(2-methoxyquinolin-3-yl)oxazol-2-yl)-7-oxononyl)-1-methyl-1H-pyrazole-3-carboxamide]
IC50 (HDAC1): < 100 nM | IC50 (HDAC in Hela cells): 100 to 1000 nM | EC50 [1]: > 1000 nM

CCC(=O)CCCCC[C@H](NC(=O)c1csnn1)c1ncc(-c2cc3ccccc3nc2OC)o1 [Compound 99, (S)-N-(1-(5-(2-methoxyquinolin-3-yl)oxazol-2-yl)-7-oxononyl)-1,2,3-thiadiazole-4-carboxamide]
IC50 (HDAC1): < 100 nM | IC50 (HDAC in Hela cells): 100 to 1000 nM | EC50 [1]: > 1000 nM

CCC(=O)CCCCC[C@H](NC(=O)c1ccns1)c1ncc(-c2cc3ccccc3nc2OC)o1 [Compound 100, (S)-N-(1-(5-(2-methoxyquinolin-3-yl)oxazol-2-yl)-7-oxononyl)isothiazole-5-carboxamide]
IC50 (HDAC1): < 100 nM | IC50 (HDAC in Hela cells): 100 to 1000 nM | EC50 [1]: 100 to 1000 nM

CCC(=O)CCCCC[C@H](NC(=O)c1snnc1C)c1ncc(-c2cc3ccccc3nc2OC)o1 [Compound 101, (S)-N-(1-(5-(2-methoxyquinolin-3-yl)oxazol-2-yl)-7-oxononyl)-4-methyl-1,2,3-thiadiazole-5-carboxamide]
IC50 (HDAC1): < 100 nM | IC50 (HDAC in Hela cells): 100 to 1000 nM | EC50 [1]: > 1000 nM

CCC(=O)CCCCC[C@H](NC(=O)C(C)n1cccn1)c1ncc(-c2cc3ccccc3nc2OC)o1 (stereo partly drawn) [Compound 102, N-((S)-1-(5-(2-methoxyquinolin-3-yl)oxazol-2-yl)-7-oxononyl)-2-(1H-pyrazol-1-yl)propanamide]
IC50 (HDAC1): < 100 nM | IC50 (HDAC in Hela cells): 100 to 1000 nM | EC50 [1]: > 1000 nM

CCC(=O)CCCCC[C@H](NC(=O)c1csc(CN(C)C)n1)c1ncc(-c2cc3ccccc3nc2OC)o1 [Compound 103, (S)-2-((dimethylamino)methyl)-N-(1-(5-(2-methoxyquinolin-3-yl)oxazol-2-yl)-7-oxononyl)thiazole-4-carboxamide]
IC50 (HDAC1): 100 to 1000 nM | IC50 (HDAC in Hela cells): 100 to 1000 nM | EC50 [1]: > 1000 nM

CCC(=O)CCCCC[C@H](NC(=O)C1CCCN(C)C1)c1ncc(-c2cc3ccccc3nc2OC)o1 (stereo partly drawn) [Compound 104, N-((S)-1-(5-(2-methoxyquinolin-3-yl)oxazol-2-yl)-7-oxononyl)-1-methylpiperidine-3-carboxamide]
IC50 (HDAC1): < 100 nM | IC50 (HDAC in Hela cells): < 100 nM | EC50 [1]: 100 to 1000 nM

CCC(=O)CCCCC[C@H](NC(=O)C1(N(C)C)CCCC1)c1ncc(-c2cc3ccccc3nc2OC)o1 [Compound 105, (S)-1-(dimethylamino)-N-(1-(5-(2-methoxyquinolin-3-yl)oxazol-2-yl)-7-oxononyl)cyclopentanecarboxamide]
IC50 (HDAC1): < 100 nM | IC50 (HDAC in Hela cells): < 100 nM | EC50 [1]: 100 to 1000 nM

CCC(=O)CCCCC[C@H](NC(=O)CC1CN(C)C1)c1ncc(-c2cc3ccccc3nc2OC)o1 [Compound 108, (S)-N-(1-(5-(2-methoxyquinolin-3-yl)oxazol-2-yl)-7-oxononyl)-2-(1-methylazetidin-3-yl)acetamide]
IC50 (HDAC1): < 100 nM | IC50 (HDAC in Hela cells): < 100 nM | EC50 [1]: 100 to 1000 nM
